Tests used:
[1] = biological target: monomers, oligomers and fibrils of Aβ (synthetic Aβ1-40) (Homo sapiens, UniProt P05067); assay: Fluorescence response to pre-formed Aβ monomers, oligomers and fibrils; assay type: binding; conditions: dye 5 μM, Aβ 20 μM
[2] = biological target: Aβ1-40 on-fibril pathway oligomers (Homo sapiens, UniProt P05067); assay: Time-dependent Aβ fibril formation monitored by dye fluorescence; assay type: binding; conditions: dye 5 μM, Aβ 20 μM, 37° C.
Sequence of Aβ1-40 on-fibril pathway oligomers (P05067 672-711): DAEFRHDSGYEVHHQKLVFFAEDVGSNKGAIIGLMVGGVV

Sequence of monomers, oligomers and fibrils of Aβ (synthetic Aβ1-40) (P05067 672-711): as above

For `Cc1ccc2c(c1)sc(-c1ccc(N(C)C)cc1)[n+]2C.[Cl-]` [ThT, Thioflavin T], which “fluorescence response to Aβ monomers, oligomers and fibrils” value [1] is on record?
Its value is “fluorescence response in the increasing order of freshly prepared Aβ monomers, followed by oligomer and fibrils”.

And the “fluorescence over the time course of Aβ fibril formation” value [2]?
The value was “reached a maximum fluorescence after about 1-day and plateaus”.

Source: patent US20180036433A1, “COMPOUNDS FOR THE DIAGNOSIS OR TREATMENT OF DISORDERS ASSOCIATED WITH PROTEIN OR PEPTIDE OLIGOMERS” (Agency for Science, Technology and Research, priority 2014, published 2018)
